Reference: patent publication US20030129664A1, “Novel Assays” (priority 1999, published 2003)

Key:
RP-23 receptor = target: T1, RP-23 receptor (Mus musculus, UniProt P30731); experiment: FLIPR functional assay of intracellular calcium mobilization (Fluo-3) in HEK-293 cells expressing RP-23 receptor with Gαqi5; type: cell-based
T1 construct: expressed in transfected cells; G418 and hygromycin selection
Procedure: The RP-23 gene (Harrigan et al., Molecular Endocrinol. 5:1331-1338 (1991)) was obtained and used to generate a mammalian expression vector. Specifically, 40 μg of RP-23 receptor DNA was digested with 100 units of EcoRI enzyme (Pharmacia) (Lambda ZAP II) at 37 degrees C., isolated on a 1% agarose gel and subcloned into the Eco RI site of pcDNA 3.0 (InVitrogen, San Diego, Calif.). The expression vector so produced was called pcDNA 3.0-RP-23. Plasmid DNA was prepared using the Qiaprep system from Qiagen.
HEK-293 cells were transfected with pcDNA 3.0-RP-23 using the calcium-phosphate method and subsequently transfected with DNA encoding a chimeric G protein (Gαqi5). This is Gq alpha with the C-terminal amino acids changed from EYNLV to DCGLF. The entire protein was subcloned in an expression vector (pCEP, Molecular Devices). […] The presence of mRNA specific for clone RP-23 was assessed by Northern Blot Analysis and by the reverse transcriptase polymerase chain reaction (RT-PCR). […]
A functional assay was performed with FLIPR using the fluorescent calcium indicator dye Fluo-3 (Molecular Probes) on a 96 well platform. […] The cells were analyzed using the FLIPR system to measure the mobilization of intracellular calcium in response to different compounds.

parental HEK-293 cells = experiment: FLIPR calcium assay in control cells (non-transfected HEK-293, other receptors or Gαqi5 alone); type: cell-based; conditions: cells transfected with other receptors or Gαqi5 alone
Procedure: A functional assay was performed with FLIPR using the fluorescent calcium indicator dye Fluo-3 (Molecular Probes) on a 96 well platform. HEK-293 cells, either expressing the receptor with the chimeric G protein (Gαqi5) or wild type cells were loaded with Fluo-3 as follows. Stable HEK-293 clones expressing RP-23 receptor with Gαqi5and/or cells expressing RP-23R alone, or parental cells were plated at a density of 70,000 cells/well in a 96 well plate. On the day of the experiment, the RP-23 receptor expressing cells were loaded with fluorescent solution (Dulbecco's modified medium with 10% fetal bovine serum containing 4 μM Fluo-3 and […] pluronic acid). The cells were incubated at 37° C. for one hour in a humidified chamber. Following the incubation, cells were Washed five times in Hanks' with 20 mM Hepes and 0.1% BSA (pH 7.4). The cells were analyzed using the FLIPR system to measure the mobilization of intracellular calcium in response to different compounds.
HEK-293 cells that endogenously express some GPCRs such as PACAP receptors can be used as an internal control for assays. Background signal was established with all of the compounds in the parental HEK-293 cells (non-transfected) or parental HEK-293 cells transfected with Gαqi5 chimeric protein using the FLIPR assay. […]

T1 sequence (P30731 18-423): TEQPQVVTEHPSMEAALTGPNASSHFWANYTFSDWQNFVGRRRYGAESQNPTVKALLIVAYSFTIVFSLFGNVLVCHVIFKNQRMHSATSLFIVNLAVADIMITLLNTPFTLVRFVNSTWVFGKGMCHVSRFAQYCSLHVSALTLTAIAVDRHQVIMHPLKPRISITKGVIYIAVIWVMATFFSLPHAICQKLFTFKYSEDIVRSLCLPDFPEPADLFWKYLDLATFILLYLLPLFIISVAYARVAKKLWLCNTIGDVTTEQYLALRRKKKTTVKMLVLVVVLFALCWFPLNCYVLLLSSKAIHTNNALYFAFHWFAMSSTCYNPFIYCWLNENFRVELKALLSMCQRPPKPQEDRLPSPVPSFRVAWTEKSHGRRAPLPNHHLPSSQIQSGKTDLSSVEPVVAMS

CCCCCCCCCCCCC/C=C/[C@@H](O)[C@@H](N)COP(=O)(O)O [sphingosine-1-PO4]
calcium response (FLIPR signal) compared to control cells (RP-23 receptor; HEK-293 cells expressing RP-23 receptor and Gαqi5 chimeric protein, compounds dissolved at 3 μM, compared with parental HEK-293 and HEK-293 transfected with Gαqi5): consistently elicited a significant signal
dose-response relationship of calcium response (RP-23 receptor; cells transfected with RP-23 and Gαqi5): dose-response relationship
dose-response relationship of calcium response in control cells (parental HEK-293 cells): not in non-transfected cells or in cells transfected with other receptors or Gαqi5 alone
